Measurements published in PubChem BioAssay (NCI).
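Cells were grown in 96-well plates and exposed to each compound for 48 hours at five concentrations; endpoints were interpolated linearly between bracketing concentrations, or set to the highest concentration if not reached. At the GI50, growth is halved. TGI: total growth inhibition.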

Legend:
Assay in all cases: NCI anticancer screen, dose series, 48 h
786-0 renal = test system: 786-0 renal
A498 renal = test system: A498 renal
A549 NSCLC = test system: A549 NSCLC
ACHN renal = test system: ACHN renal
BT-549 breast = test system: BT-549 breast
CAKI-1 renal = test system: CAKI-1 renal
CCRF-CEM leukemia = test system: CCRF-CEM leukemia
COLO 205 colon = test system: COLO 205 colon
DU-145 prostate = test system: DU-145 prostate
EKVX NSCLC = test system: EKVX NSCLC
HCC-2998 colon = test system: HCC-2998 colon
HCT-116 colon = test system: HCT-116 colon
HCT-15 colon = test system: HCT-15 colon
HL-60(TB) leukemia = test system: HL-60(TB) leukemia
HOP-62 NSCLC = test system: HOP-62 NSCLC
HOP-92 NSCLC = test system: HOP-92 NSCLC
HS 578T breast = test system: HS 578T breast
HT29 colon = test system: HT29 colon
IGROV1 ovarian = test system: IGROV1 ovarian
K-562 leukemia = test system: K-562 leukemia
KM12 colon = test system: KM12 colon
LOX IMVI melanoma = test system: LOX IMVI melanoma
M14 melanoma = test system: M14 melanoma
MALME-3M melanoma = test system: MALME-3M melanoma
MCF7 breast = test system: MCF7 breast
MDA-MB-231 breast = test system: MDA-MB-231 breast
MDA-MB-435 = test system: MDA-MB-435
MDA-N = test system: MDA-N
MOLT-4 leukemia = test system: MOLT-4 leukemia
NCI-H226 lung = test system: NCI-H226 lung
NCI-H23 lung = test system: NCI-H23 lung
NCI-H460 lung = test system: NCI-H460 lung
NCI-H522 lung = test system: NCI-H522 lung
NCI/ADR-RES ovarian = test system: NCI/ADR-RES ovarian
OVCAR-3 ovarian = test system: OVCAR-3 ovarian
OVCAR-4 ovarian = test system: OVCAR-4 ovarian
OVCAR-5 ovarian = test system: OVCAR-5 ovarian
OVCAR-8 ovarian = test system: OVCAR-8 ovarian
PC-3 prostate = test system: PC-3 prostate
RPMI-8226 leukemia = test system: RPMI-8226 leukemia
RXF 393 renal = test system: RXF 393 renal
SF-268 CNS = test system: SF-268 CNS
SF-295 CNS = test system: SF-295 CNS
SF-539 CNS = test system: SF-539 CNS
SK-MEL-2 melanoma = test system: SK-MEL-2 melanoma
SK-MEL-28 melanoma = test system: SK-MEL-28 melanoma
SK-MEL-5 melanoma = test system: SK-MEL-5 melanoma
SK-OV-3 ovarian = test system: SK-OV-3 ovarian
SN12C renal = test system: SN12C renal
SNB-19 CNS = test system: SNB-19 CNS
SNB-75 CNS = test system: SNB-75 CNS
SW-620 colon = test system: SW-620 colon
T-47D breast = test system: T-47D breast
TK-10 renal = test system: TK-10 renal
U251 CNS = test system: U251 CNS
UACC-257 melanoma = test system: UACC-257 melanoma
UACC-62 melanoma = test system: UACC-62 melanoma
UO-31 renal = test system: UO-31 renal

COc1cc(C(c2c(O)c3ccccc3oc2=O)c2c(O)c3ccccc3oc2=O)ccc1O
TGI (786-0 renal): 56 µM | TGI (A498 renal): > 100 µM | TGI (A549 NSCLC): > 100 µM | TGI (ACHN renal): 40.2 µM | TGI (BT-549 breast): 38.9 µM | TGI (CAKI-1 renal): 36.5 µM | TGI (CCRF-CEM leukemia): 89.6 µM | TGI (COLO 205 colon): 31.7 µM | TGI (DU-145 prostate): 52.6 µM | TGI (EKVX NSCLC): 80.9 µM | TGI (HCC-2998 colon): 33.9 µM | TGI (HCT-116 colon): > 100 µM | TGI (HCT-15 colon): 36 µM | TGI (HL-60(TB) leukemia): 57.9 µM | TGI (HOP-62 NSCLC): > 100 µM | TGI (HOP-92 NSCLC): 33.8 µM | TGI (HS 578T breast): > 100 µM | TGI (HT29 colon): 40.8 µM | TGI (IGROV1 ovarian): 27.2 µM | TGI (K-562 leukemia): > 100 µM | TGI (KM12 colon): 87.1 µM | TGI (LOX IMVI melanoma): 65.1 µM | TGI (M14 melanoma): 34.7 µM | TGI (MALME-3M melanoma): 38 µM | TGI (MCF7 breast): 38.2 µM | TGI (MDA-MB-231 breast): 35.9 µM | TGI (MDA-MB-435): > 100 µM | TGI (MDA-N): 44.8 µM | TGI (MOLT-4 leukemia): 62.4 µM | TGI (NCI-H226 lung): > 100 µM | TGI (NCI-H23 lung): > 100 µM | TGI (NCI-H460 lung): 44.6 µM | TGI (NCI-H522 lung): 43.2 µM | TGI (NCI/ADR-RES ovarian): > 100 µM | TGI (OVCAR-3 ovarian): 34.6 µM | TGI (OVCAR-4 ovarian): > 100 µM | TGI (OVCAR-5 ovarian): 41.3 µM | TGI (OVCAR-8 ovarian): > 100 µM | TGI (PC-3 prostate): 94.6 µM | TGI (RPMI-8226 leukemia): > 100 µM | TGI (RXF 393 renal): 33.7 µM | TGI (SF-268 CNS): 45.4 µM | TGI (SF-295 CNS): > 100 µM | TGI (SF-539 CNS): 53.9 µM | TGI (SK-MEL-2 melanoma): 58.5 µM | TGI (SK-MEL-28 melanoma): 36.5 µM | TGI (SK-MEL-5 melanoma): 30.3 µM | TGI (SK-OV-3 ovarian): > 100 µM | TGI (SN12C renal): 42 µM | TGI (SNB-19 CNS): 92 µM | TGI (SNB-75 CNS): 66.1 µM | TGI (SW-620 colon): 63.1 µM | TGI (T-47D breast): 33.9 µM | TGI (TK-10 renal): 46.1 µM | TGI (U251 CNS): 58.4 µM | TGI (UACC-257 melanoma): 37.1 µM | TGI (UACC-62 melanoma): 35.4 µM | TGI (UO-31 renal): 65.6 µM

O=C(c1ccc(Cl)c(Cl)c1)N1CCN(C(=O)c2ccc(Cl)c(Cl)c2)C1=S
GI50 (786-0 renal): 7.16 µM | TGI (786-0 renal): 20.5 µM | GI50 (A498 renal): 20.2 µM | TGI (A498 renal): 36 µM | GI50 (A549 NSCLC): 27.8 µM | TGI (A549 NSCLC): 68.9 µM | GI50 (ACHN renal): 19.2 µM | TGI (ACHN renal): 34.4 µM | GI50 (BT-549 breast): 23.6 µM | TGI (BT-549 breast): 48 µM | GI50 (CAKI-1 renal): 14 µM | TGI (CAKI-1 renal): 27.1 µM | GI50 (CCRF-CEM leukemia): 4.47 µM | TGI (CCRF-CEM leukemia): 18.7 µM | GI50 (COLO 205 colon): 17.8 µM | TGI (COLO 205 colon): 33.6 µM | GI50 (DU-145 prostate): 14.7 µM | TGI (DU-145 prostate): 29 µM | GI50 (EKVX NSCLC): 20.8 µM | TGI (EKVX NSCLC): 38.4 µM | GI50 (HCC-2998 colon): 19.9 µM | TGI (HCC-2998 colon): 42.9 µM | GI50 (HCT-116 colon): 18.1 µM | TGI (HCT-116 colon): 32.8 µM | GI50 (HCT-15 colon): 19.6 µM | TGI (HCT-15 colon): 43.7 µM | GI50 (HL-60(TB) leukemia): 12.7 µM | TGI (HL-60(TB) leukemia): 31.3 µM | GI50 (HOP-62 NSCLC): 17.6 µM | TGI (HOP-62 NSCLC): 42.8 µM | GI50 (HOP-92 NSCLC): 20 µM | TGI (HOP-92 NSCLC): 34.2 µM | GI50 (HS 578T breast): 29.1 µM | TGI (HS 578T breast): > 100 µM | GI50 (HT29 colon): 24.2 µM | TGI (HT29 colon): 53 µM | GI50 (IGROV1 ovarian): 19.7 µM | TGI (IGROV1 ovarian): 36.3 µM | GI50 (K-562 leukemia): 16.3 µM | TGI (K-562 leukemia): 60 µM | GI50 (KM12 colon): 16.1 µM | TGI (KM12 colon): 33.1 µM | GI50 (LOX IMVI melanoma): 7.63 µM | TGI (LOX IMVI melanoma): 24.2 µM | GI50 (M14 melanoma): 19.6 µM | TGI (M14 melanoma): 37.9 µM | GI50 (MALME-3M melanoma): 14.9 µM | TGI (MALME-3M melanoma): 30.6 µM | GI50 (MCF7 breast): 5.57 µM | TGI (MCF7 breast): 36.4 µM | GI50 (MDA-MB-231 breast): 18.8 µM | TGI (MDA-MB-231 breast): 33.3 µM | GI50 (MDA-MB-435): 15.4 µM | TGI (MDA-MB-435): 31.3 µM | GI50 (MDA-N): 18.3 µM | TGI (MDA-N): 38.4 µM | GI50 (MOLT-4 leukemia): 15.7 µM | TGI (MOLT-4 leukemia): 36.3 µM | GI50 (NCI-H226 lung): 19 µM | TGI (NCI-H226 lung): 37.4 µM | GI50 (NCI-H23 lung): 22 µM | TGI (NCI-H23 lung): 43 µM | GI50 (NCI-H460 lung): 22 µM | TGI (NCI-H460 lung): 49.4 µM | GI50 (NCI-H522 lung): 6.14 µM | TGI (NCI-H522 lung): 25 µM | GI50 (NCI/ADR-RES ovarian): 34.4 µM | TGI (NCI/ADR-RES ovarian): > 100 µM | GI50 (OVCAR-3 ovarian): 17.1 µM | TGI (OVCAR-3 ovarian): 35.2 µM | GI50 (OVCAR-4 ovarian): 16.8 µM | TGI (OVCAR-4 ovarian): 31.4 µM | GI50 (OVCAR-5 ovarian): 24.3 µM | TGI (OVCAR-5 ovarian): 51.3 µM | GI50 (OVCAR-8 ovarian): 19 µM | TGI (OVCAR-8 ovarian): 34.1 µM | GI50 (PC-3 prostate): 16.7 µM | TGI (PC-3 prostate): 31.7 µM | TGI (RPMI-8226 leukemia): 5.6 µM | GI50 (RXF 393 renal): 17.8 µM | TGI (RXF 393 renal): 35.8 µM | GI50 (SF-268 CNS): 16.8 µM | TGI (SF-268 CNS): 47.9 µM | GI50 (SF-295 CNS): 18.5 µM | TGI (SF-295 CNS): 39.7 µM | GI50 (SF-539 CNS): 15.1 µM | TGI (SF-539 CNS): 29.9 µM | GI50 (SK-MEL-2 melanoma): 18.4 µM | TGI (SK-MEL-2 melanoma): 33.9 µM | GI50 (SK-MEL-28 melanoma): 30.6 µM | TGI (SK-MEL-28 melanoma): 69.8 µM | GI50 (SK-OV-3 ovarian): 18.2 µM | TGI (SK-OV-3 ovarian): 33.9 µM | GI50 (SN12C renal): 18.3 µM | TGI (SN12C renal): 43.9 µM | GI50 (SNB-19 CNS): 21.4 µM | TGI (SNB-19 CNS): 40.7 µM | GI50 (SNB-75 CNS): 18.9 µM | TGI (SNB-75 CNS): 36.4 µM | GI50 (SW-620 colon): 21.3 µM | TGI (SW-620 colon): 52.1 µM | GI50 (T-47D breast): 17.5 µM | TGI (T-47D breast): 73.6 µM | GI50 (TK-10 renal): 18.5 µM | TGI (TK-10 renal): 36.5 µM | GI50 (U251 CNS): 16.4 µM | TGI (U251 CNS): 29.9 µM | GI50 (UACC-257 melanoma): 17.3 µM | TGI (UACC-257 melanoma): 35.6 µM | GI50 (UACC-62 melanoma): 18.1 µM | TGI (UACC-62 melanoma): 34.4 µM
